# Reference: US10966426B2, “Herbicidal compositions comprising phenylpyrimidines” (BASF SE, priority 2016, dated 2021)
# Legend:
# Type in all cases: in vivo
# Setaria viridis = assay: greenhouse pre-emergence treatment, SETVI; conditions: SETVI
# In short: (§1)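 Seeds were sown per species in pots of loamy sand with about 3.0% humus, sprayed with the aqueous spray liquor directly after sowing, watered and hooded until rooted, then kept at 10-25° C. or 20-35° C. for 2 to 4 weeks. Damage was scored 0 (none) to 100 (no emergence/complete destruction).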
# BRAPL = assay: greenhouse pre-emergence treatment, BRAPL; conditions: Table X9, 21 DAT
# Galium aparine = assay: greenhouse pre-emergence treatment, GALAP; conditions: Galium aparine, 480 h, solo, EC 800 g/l, GALAP, 500 gai/ha, 20 DAT
# In short: as §1
# Brachiaria decumbens = assay: greenhouse pre-emergence treatment, BRADC; conditions: Urochloa decumbens, 480 h, 20 DAT, BRADC
# In short: as §1
# Lolium multiflorum = assay: greenhouse pre-emergence treatment, LOLMU; conditions: Lolium multiflorum, 480 h, 20 DAT, LOLMU
# In short: as §1
# Bromus sterilis = assay: greenhouse pre-emergence treatment, BROST; conditions: Bromus sterilis, 480 h, 20 DAT, BROST
# In short: as §1
# Papaver rhoeas = assay: greenhouse pre-emergence treatment, PAPRH; conditions: 20 DAT
# Source text: (§2) The culture containers used were plastic pots containing loamy sand with approximately 3.0% of humus as substrate. The seeds of the test plants were sown separately for each species.
# (§3) For the pre-emergence treatment, the active compounds, suspended or emulsified in water, were applied directly after sowing by means of finely distributing nozzles. The containers were irrigated gently to promote germination and growth and subsequently covered with transparent plastic hoods until the plants had rooted. This cover caused uniform germination of the test plants unless this was adversely affected by the active compounds.
# (§4) Depending on the species, the plants were kept at 10-25° C. and 20-35° C., respectively.
# (§5) The test period extended over 2 to 4 weeks. During this time, the plants were tended and their response to the individual treatments was evaluated.
# (§6) Evaluation was carried out using a scale from 0 to 100. 100 means no emergence of the plants, or complete destruction of at least the above-ground parts, and 0 means no damage or normal course of growth. A good herbicidal activity is given at values of at least 70, and very good herbicidal activity is given at values of at least 85.
# (§7) The respective stated components A and B, and if appropriate, C were formulated as a 10% by weight strength emulsion concentrate and, with addition of the amount of solvent system, introduced into the spray liquor used for applying the active compound. In the examples, the solvent used was water.
# (§8) In the examples below, using the method of S. R. Colby (1967) “Calculating synergistic and antagonistic responses of herbicide combinations”, Weeds 15, p. 22ff., the value E, which is expected if the activity of the individual active compounds is only additive, was calculated. E=X+Y−(X·Y/100) where X=effect in percent using herbicide A at an application rate a; • Y=effect in percent using herbicide B at application rate b; • E=expected effect (in %) of herbicide A+herbicide B at application rates a+b.
# Poa annua = assay: greenhouse pre-emergence treatment, POAAN; conditions: Poa annua, 480 h, 20 DAT; for inhibition at 500000 µg/mL (stock): sc
# Source text: as §2, §3, §4, §5, §6, §7, §8
# Matricaria chamomilla = assay: greenhouse pre-emergence treatment, MATCH; conditions: Matricaria chamomilla, 480 h, 20 DAT
# Source text: as §2, §3, §4, §5, §6, §7, §8
# Polygonum convolvulus = assay: greenhouse pre-emergence treatment, POLCO; conditions: Fallopia convolvulus, 480 h, 20 DAT, POLCO
# In short: as §1
# Avena fatua = assay: greenhouse pre-emergence treatment, AVEFA; conditions: Avena fatua, 480 h, AVEFA, 20 DAT, solo terbuthylazin (SC 500 g/l) 500 gai/ha
# In short: as §1
# Lolium perenne = assay: greenhouse post-emergence treatment, LOLPE; conditions: solo terbuthylazin (SC 500 g/l) 125 gai/ha, 20 DAT, 2nd series of rows
# Protocol: as §2
# To this end, the test plants were either sown directly, and grown in the same containers, or they were first grown separately as seedlings and transplanted into the test containers a few days prior to treatment.
# as §4, §5, §6
# In the examples, the solvent used was water.
# In the examples below, using the method of S. R. Colby (1967) “Calculating synergistic and antagonistic responses of herbicide combinations”, Weeds 15, p. […] E=X+Y−(X·Y/100) where X=effect in percent using herbicide A at an application rate a; • Y=effect in percent using herbicide B at application rate b; • E=expected effect (in %) of herbicide A+herbicide B at application rates a+b.
# Echinocloa crus-galli = assay: greenhouse pre-emergence treatment, ECHCG; conditions: 20 DAT; for % activity: terbuthylazin solo (SC 500 g/l)
# Source text: as §2, §3, §4, §5, §6, §7, §8
# Alopecurus myosuroides = assay: greenhouse pre-emergence treatment, ALOMY; conditions: Alopecurus myosuroides, 480 h, 20 DAT, solo terbuthylazin (SC 500 g/l) 250 gai/ha
# Source text: as §2, §3, §4, §5, §6, §7, §8
# Ambrosia elatior = assay: greenhouse pre-emergence treatment, AMBEL; conditions: Ambrosia artemisiifolia, 480 h, terbuthylazin solo (SC 500 g/l), 500 gai/ha, 20 DAT, AMBEL
# In short: as §1
# Stellaria media = assay: greenhouse pre-emergence treatment, STEME; conditions: Stellaria media, 480 h, 20 DAT, solo terbuthylazin (SC 500 g/l) 62.5 gai/ha
# Source text: as §2, §3, §4, §5, §6, §7, §8
# Apera spica-venti = assay: greenhouse pre-emergence treatment, APESV; conditions: Apera spica-venti, sc, 480 h, 20 DAT
# In short: as §1
# Digitaria sanguinalis = assay: greenhouse pre-emergence treatment, DIGSA; conditions: Digitaria sanguinalis, sc, 480 h, DIGSA, 20 DAT
# In short: as §1
# [1] = prosulfocarb solo 250 gai/ha, read-out: % activity
# [2] = sc, solo terbuthylazin (SC 500 g/l) 250 gai/ha
# [3] = sc, solo terbuthylazin (SC 500 g/l) 500 gai/ha
# [4] = solo terbuthylazin (SC 500 g/l) 250 gai/ha
# [5] = solo terbuthylazin (SC 500 g/l) 62.5 gai/ha
# [6] = solo terbuthylazin (SC 500 g/l) 125 gai/ha
compound,measurement,setting,value
O=C(Nc1ccc(F)cc1F)c1cccnc1Oc1cccc(C(F)(F)F)c1 [diflufenican],% activity,"Setaria viridis; Table X9, 21 DAT, solo diflufenican (SC 500 g/l) 60 gai/ha",70%
same,% activity,BRAPL; solo diflufenican (SC 500 g/l) 15 gai/ha,0%
same,% activity,BRAPL; solo diflufenican (SC 500 g/l) 30 gai/ha,0%
same,% activity,BRAPL; solo diflufenican (SC 500 g/l) 120 gai/ha,20%
CCCN(CCC)C(=O)SCc1ccccc1 [prosulfocarb],pest or weed control at 500 g/ha,Galium aparine,30%
same,"% herbicidal activity (weed control, 0-100 scale) at 250 g/ha",Brachiaria decumbens; prosulfocarb solo 250 gai/ha,0%
same,"% herbicidal activity (weed control, 0-100 scale) at 500 g/ha",Brachiaria decumbens; prosulfocarb solo 500 gai/ha,20%
same,inhibition at 250 g/ha,Lolium multiflorum; prosulfocarb solo 250 gai/ha,30%
same,inhibition at 250 g/ha,Bromus sterilis; [1],0%
same,inhibition at 500 g/ha,Bromus sterilis; prosulfocarb solo 500 gai/ha,40%
same,inhibition at 1000 g/ha,Bromus sterilis; prosulfocarb solo 1000 gai/ha,50%
same,inhibition at 1000 g/ha,"Papaver rhoeas; Papaver rhoeas, 480 h, prosulfocarb solo 1000 gai/ha",70%
same,% activity,"Papaver rhoeas; solo, EC 800 g/l, 1000 gai/ha",70%
same,inhibition at 250 g/ha,"Setaria viridis; Setaria viridis, 480 h, prosulfocarb solo 250 gai/ha, 20 DAT",40%
same,inhibition at 1000 g/ha,"Setaria viridis; Setaria viridis, 480 h, prosulfocarb solo 1000 gai/ha, 20 DAT",85%
same,% activity,"Setaria viridis; solo, EC 800 g/l, 125 gai/ha, 20 DAT",10%
same,inhibition at 125 g/ha,Poa annua; prosulfocarb solo 125 gai/ha,0%
same,inhibition at 250 g/ha,Matricaria chamomilla; prosulfocarb solo 250 gai/ha,0%
same,inhibition at 1000 g/ha,Matricaria chamomilla; prosulfocarb solo 1000 gai/ha,65%
same,inhibition at 250 g/ha,Polygonum convolvulus; [1],0%
same,inhibition at 1000 g/ha,Polygonum convolvulus; prosulfocarb solo 1000 gai/ha,80%
"CCNc1nc(Cl)nc(NC(C)(C)C)n1 [terbuthylazin, terbuthylazine]",inhibition at 500000 µg/mL (stock),"Lolium multiflorum; sc, solo terbuthylazin (SC 500 g/l) 125 gai/ha",0%
same,inhibition at 500000 µg/mL (stock),Lolium multiflorum; [2],10%
same,inhibition at 500000 µg/mL,Lolium multiflorum; [3],35%
same,inhibition at 500000 µg/mL,Avena fatua,0%
same,inhibition at 500000 µg/mL (stock),Bromus sterilis; [4],0%
same,% activity,Lolium perenne,35%
same,inhibition at 500000 µg/mL,"Echinocloa crus-galli; Echinochloa crus-galli, 480 h, solo terbuthylazin (SC 500 g/l) 500 gai/ha",0%
same,% activity,Echinocloa crus-galli; 62.5 gai/ha,0%
same,% activity,Echinocloa crus-galli; 125 gai/ha,0%
same,inhibition at 500000 µg/mL (stock),Alopecurus myosuroides,40%
same,inhibition at 500000 µg/mL (stock),"Setaria viridis; Setaria viridis, 480 h, 20 DAT, solo terbuthylazin (SC 500 g/l) 250 gai/ha",0%
same,% activity,"Setaria viridis; terbuthylazin solo (SC 500 g/l), 62.5 gai/ha, 20 DAT",0%
same,% activity,"Setaria viridis; terbuthylazin solo (SC 500 g/l), 125 gai/ha, 20 DAT",0%
same,% activity,"Setaria viridis; terbuthylazin solo (SC 500 g/l), 250 gai/ha, 20 DAT",0%
same,inhibition at 500000 µg/mL (stock),Poa annua; [5],0%
same,inhibition at 500000 µg/mL (stock),Poa annua; [6],30%
same,inhibition at 500000 µg/mL (stock),Poa annua; [4],70%
same,"pest or weed control at 500000 µg/mL, 500 g/ha",Ambrosia elatior,65%
same,inhibition at 500000 µg/mL (stock),Stellaria media,70%
same,"pest or weed control at 500000 µg/mL, 500 g/ha","Polygonum convolvulus; terbuthylazin solo (SC 500 g/l), 500 gai/ha",65%
same,inhibition at 500000 µg/mL (stock),Polygonum convolvulus; [2],0%
same,inhibition at 500000 µg/mL,Polygonum convolvulus; [3],65%
same,inhibition at 500000 µg/mL (stock),Apera spica-venti; [5],0%
same,inhibition at 500000 µg/mL (stock),Apera spica-venti; [6],50%
same,inhibition at 500000 µg/mL (stock),Digitaria sanguinalis; [6],0%
same,inhibition at 500000 µg/mL (stock),Digitaria sanguinalis; [4],0%
same,inhibition at 500000 µg/mL,Digitaria sanguinalis; solo terbuthylazin (SC 500 g/l) 500 gai/ha,20%
